Where two headings read alike, the source gives them in different places.
Legend:
SW620 = assay: Cell death IC50, Annexin V-FITC/PI flow cytometry; type: cell-based; settings: Homo sapiens, read-out: IC50 SW620
Procedure: (§1) The cells were seeded in a 6-well plate at density 5.105 cells/well and cultured overnight. The cells were then treated with various concentration (15, 30, 100, 500, 1000 and 10.000 nM) of salinomycine, AM5 and AM23 for 72 h, 96 h and 108 h. After treatment, cell death was quantified using Annexin V-FITC/Propidium Iodide (PI) assay according to the manufacturer's protocol (FITC Annexin V Apoptosis Detection Kit II, 556570, BD Pharmingen™) and analyzed by a LSRFortessa™ flow cytometer (BD Bioscience, San Jose, Calif.). The data were processed using Cell Quest software (BD Biosciences). Dose-response cell death curves were determined for indicated time.
(§2) For tumor cells, the cells are classified in function of their sensitivity of drugs. Here, the most sensitive cells are incubated for 72 h, the middle sensitive cells for 96 h and the less sensitive or resistant cells are incubated for 108 h with drug at several concentrations.
(§3) Concentrations of 30 nM, 500 nm and 1 μM were used for determining the IC50 of drugs.
(§4) Intervals][…]] mean that IC50 is included in this interval with exclusion of the valor 30 nM.
(§5) The SW620 and SW480 cell lines are from colon tumors.

SW480 = assay: Cell death IC50, Annexin V-FITC/PI flow cytometry; type: cell-based; settings: Homo sapiens, read-out: IC50 SW480
Procedure: as §1, §2, §3, §4, §5

HMLER CD24− cells [1] = assay: Cell viability assay (CellTiter-Blue), IC50 assessment; type: cell-based, Human; settings: for IC50: Homo sapiens, read-out: IC50 CD24−
Procedure: (§6) FIG. 1 represents viability of HMLER CD24− cells (full line) and HMLER CD24+ cells (dotted line) at different concentration of salinomycine (1A), AM5 […] or AM13 (1D).
(§7) Cell viability assay was carried out by plating 1000 cells per well in 96-well plates. NAC (2 mM, A9165 Sigma) or DFO (1 mM) were pretreated 2 hours prior to the compound treatment. CellTiter-Blue® Reagent (Promega; G3582) (20 μl/well) was added after 24, 48, or 72 hours treatment and cells were incubated for 1 hour before recording fluorescence (560(20)Ex/590(10)Em) using a Perkin Elmer Wallac 1420 Victor2 Microplate Reader.

HMLER CD24+ cells = assay: as above; type: cell-based; settings: Homo sapiens, read-out: IC50 CD24+
Procedure: as §6, §7

HMLER CD24− cells [2] = assay: Cell proliferation and formation of mammospheres; type: cell-based, Human
Description: FIG. 2 is a representative phase contrast photomicrographs of mammospheres formed after 11 days in the absence of any added compound (Control) or in the presence of a defined amount of salinomycine, AM5, AM9 or AM13. […] The size of the mammospheres is correlated with progenitor cell proliferation, whereas the number of mammospheres formed after serial passages at clonal density is correlated with the self-renewal capacity of primitive Cancer Stem Cells. […]
FIG. 9 represents images of the third generation of mammospheres formed from individual HMLER CD24low cells treated during 7 days with the indicated drug. The size of the mammospheres is correlated with progenitor cell proliferation capacity, whereas the number of mammospheres formed after serial passages at clonal density is correlated with the self-renewal capacity of primitive Cancer Stem Cells.
AM5, AM9, AM13 and salinomycine were assessed for their capability to inhibit cell proliferation and formation of mammospheres. […]
AM5 and AM23 and salinomycine were assessed for their capability to inhibit cell proliferation and formation of mammospheres.

MDA-MB-231 cells = assay: Dead cells by DIOC6(3)/DAPI test with cathepsine B inhibitor; type: cell-based, Human; settings: 500 nM; COA74-Me 30 μM; 48 h, 96 h, 108 h
Procedure: From the treatment, dead cells were assessed by DIOC6(3)/DAPI test and analyzed by flow cytometry.

MDA-MB-361 = assay: Cell death IC50, Annexin V-FITC/PI flow cytometry; type: cell-based; settings: Homo sapiens, read-out: IC50 MDA-MB-361
Procedure: as §1, §2, §3, §4

HMLE W2 = assay: Cell death IC50, Annexin V-FITC/PI flow cytometry; type: cell-based; settings: Homo sapiens, read-out: IC50 HMLE W2
Procedure: as §1, §2, §3, §4

MCF-7 = assay: Cell death IC50, Annexin V-FITC/PI flow cytometry; type: cell-based; settings: Homo sapiens, read-out: IC50 MCF-7
Procedure: as §1, §2, §3, §4

BT20 = assay: Cell death IC50, Annexin V-FITC/PI flow cytometry; type: cell-based; settings: Homo sapiens, read-out: IC50 BT20
Procedure: as §1, §2, §3, §4

MDA-MB-231 = assay: Cell death IC50, Annexin V-FITC/PI flow cytometry; type: cell-based; settings: Homo sapiens, read-out: IC50 MDA-MB-231
Procedure: as §1, §2, §3, §4

Zr75.1 = assay: Cell death IC50, Annexin V-FITC/PI flow cytometry; type: cell-based; settings: Homo sapiens, read-out: IC50 Zr75.1
Procedure: as §1, §2, §3, §4

HMLER ID2 = assay: Cell death IC50, Annexin V-FITC/PI flow cytometry; type: cell-based; settings: Homo sapiens, read-out: IC50 HMLER ID2
Procedure: as §1, §2, §3, §4

T47D = assay: Cell death IC50, Annexin V-FITC/PI flow cytometry; type: cell-based; settings: Homo sapiens, Resistant (108 h)
Procedure: as §1, §2, §3, §4

HMLER CD24low = assay: Cell death IC50, Annexin V-FITC/PI flow cytometry; type: cell-based; settings: Homo sapiens, read-out: IC50 HMLER CD24low
Procedure: as §1, §2, §3, §4

HMLER shECAD = assay: Cell death IC50, Annexin V-FITC/PI flow cytometry; type: cell-based; settings: Homo sapiens, read-out: IC50 HMLER shECAD
Procedure: as §1, §2, §3, §4

BT549 = assay: Cell death IC50, Annexin V-FITC/PI flow cytometry; type: cell-based; settings: Homo sapiens, read-out: IC50 BT549
Procedure: as §1, §2, §3, §4

HBL100 = assay: Cell death IC50, Annexin V-FITC/PI flow cytometry; type: cell-based; settings: Homo sapiens
Procedure: as §1, §2, §3, §4

MDA-MD-157 = assay: Cell death IC50, Annexin V-FITC/PI flow cytometry; type: cell-based; settings: Homo sapiens, read-out: IC50 MDA-MD-157
Procedure: as §1, §2, §3, §4

MDA-MB-134 = assay: Cell death IC50, Annexin V-FITC/PI flow cytometry; type: cell-based; settings: Homo sapiens, read-out: IC50 MDA-MB-134
Procedure: as §1, §2, §3, §4

HMLER GFP = assay: Cell death IC50, Annexin V-FITC/PI flow cytometry; type: cell-based; settings: Homo sapiens; 1rst sensibility (72 h)
Procedure: as §1, §2, §3, §4

BT474 = assay: Cell death IC50, Annexin V-FITC/PI flow cytometry; type: cell-based; settings: Homo sapiens, read-out: IC50 BT474
Procedure: as §1, §2, §3, §4

[3] = third generation of mammospheres, HMLER CD24low cells treated 7 days

## C#CCN[C@@H]1C=C[C@]2(O[C@H]([C@@H](CC)C(=O)[C@@H](C)[C@@H](O)[C@H](C)C3O[C@@H](C(CC)C(=O)O)CC[C@@H]3C)[C@@H](C)C[C@H]2C)O[C@@]12CC[C@@](C)([C@H]1CC[C@](O)(CC)[C@H](C)O1)O2 (stereo partly drawn) [AM5, Sal-Propargylamine]
SW620; SW-620, 3rd sensibility (108 h), colon tumor cells
  IC50: 30 to 500 nM
SW480; SW480, 3rd sensibility (108 h), colon tumor cells
  IC50: 30 to 500 nM
HMLER CD24− cells [1]; HMLER CD24− cells, cell viability
  IC50: 84.9 nM
HMLER CD24− cells [1]; comparison of the IC50 results
  activity against CD24 cells compared with salinomycine: significantly improved activity
HMLER CD24+ cells; HMLER CD24+ cells, cell viability
  IC50: 3.51 µM
HMLER CD24− cells [2]; at 30 nM
  inhibition of cell proliferation, efficacy in comparison with salinomycine: ten-fold improved efficacy
HMLER CD24− cells [2]; mammospheres after 11 days, low nanomolar concentrations
  number and size of mammosphere: reduced the number and the size of mammosphere
HMLER CD24− cells [2]; [3]
  number of mammospheres: reduced the number of mammospheres
  size of mammospheres: do not alter the tumor diameters
MDA-MB-231 cells
  death of MDA-MB-231 cells in combination with cathepsine B inhibition: combine themselves to induce the death
MDA-MB-361; MDA-MB-361, 2nd sensibility (96 h)
  IC50: 500 nM
HMLE W2; Immortalized
  IC50: > 1000 nM
MCF-7; MCF7, 1rst sensibility (72 h), ]30-500] excludes 30 nM
  IC50: 30 to 500 nM
BT20; BT-20, 3rd sensibility (108 h)
  IC50: 30 to 500 nM
MDA-MB-231; MDA-MB-231, 2nd sensibility (96 h)
  IC50: > 1000 nM
Zr75.1; ZR-75-1, 1rst sensibility (72 h), ]30-500] excludes 30 nM
  IC50: 30 to 500 nM
HMLER ID2; 1rst sensibility (72 h)
  IC50: > 1000 nM
T47D
  IC50: > 1000 nM
HMLER CD24low; 1rst sensibility (72 h)
  IC50: < 30 nM
HMLER shECAD; 1rst sensibility (72 h)
  IC50: 30 to 500 nM
BT549; BT-549, Resistant (108 h)
  IC50: > 1000 nM
HBL100; HBL-100, No tumoral, read-out: IC50 HBL100
  IC50: > 1000 nM
MDA-MD-157; 2nd sensibility (96 h)
  IC50: 500 nM
MDA-MB-134; 2nd sensibility (96 h)
  IC50: 30 to 500 nM
HMLER GFP
  IC50: 1000 nM
BT474; BT-474, 2nd sensibility (96 h)
  IC50: > 1000 nM

## CCC(C(=O)O)[C@H]1CC[C@H](C)C([C@@H](C)[C@H](O)[C@H](C)C(=O)[C@H](CC)[C@H]2O[C@]3(C=C[C@@H](O)[C@]4(CC[C@@](C)([C@H]5CC[C@](O)(CC)[C@H](C)O5)O4)O3)[C@H](C)C[C@@H]2C)O1 (stereo partly drawn) [Salinomycine, Salinomycin]
SW620; SW-620, 108 h
  IC50: 500 to 1000 nM
SW480; SW480, 108 h
  IC50: 30 to 500 nM
HMLER CD24− cells [1]
  IC50: 1560 nM
HMLER CD24+ cells
  IC50: 11 µM
HMLER CD24− cells [2]; [3]
  size of mammospheres: do not alter the tumor diameters
MDA-MB-231 cells
  death of MDA-MB-231 cells in combination with cathepsine B inhibition: combine themselves to induce the death
MDA-MB-361; MDA-MB-361, 96 h
  IC50: 500 nM
HMLE W2
  IC50: > 1000 nM
MCF-7; MCF7, 72 h
  IC50: 30 to 500 nM
BT20; BT-20, 108 h
  IC50: 500 nM
MDA-MB-231; MDA-MB-231, 96 h
  IC50: > 1000 nM
Zr75.1; ZR-75-1, 72 h
  IC50: 500 nM
HMLER ID2; 72 h
  IC50: > 1000 nM
T47D
  IC50: > 1000 nM
HMLER CD24low; 72 h
  IC50: 30 to 500 nM
HMLER shECAD; 72 h
  IC50: 30 to 500 nM
BT549; BT-549, 108 h
  IC50: > 1000 nM
HBL100; HBL-100, read-out: IC50 HBL100
  IC50: > 1000 nM
MDA-MD-157; 96 h
  IC50: 1000 nM
MDA-MB-134; 96 h
  IC50: 30 to 500 nM
HMLER GFP
  IC50: 1000 nM
BT474; BT-474, 96 h
  IC50: > 1000 nM
